{
  "source": "patent US20250275940A1",
  "about": "“PTEROSTILBENE AND SILIBININ FOR PREVENTING, AMELIORATING OR REDUCING RADIATION-INDUCED DISEASES” (UNIVERSITAT DE VALÈNCIA, priority 2021, published 2025)",
  "key": {"[1]": {"tested_on": "Swiss albino mice subjected to whole-body γ irradiation", "test": "Survival of mice subjected to whole-body γ irradiation (LD50/30)", "format": "in vivo", "details": "6 days after γ radiation (LD50/30), compounds administered orally, FIG. 2A", "excerpt": "Swiss albino mice (male, 9-10 weeks old, 30-32 g) were obtained from Charles River Laboratories (Wilmington, MA). This strain is among the most common used in radiation studies (Williams 2010). Mice were fed with a nutritionally complete diet (standard diet, SD) before irradiation. This was A03 from Panlab (Barcelona, Spain), which has 3,200 kcal/kg and the following nutritional composition: crude protein, 23.5%; crude fat, 4.3%; crude fiber, 3.7%; and carbohydrates, 51.1%; vitamins and minerals were provided as in the NIH-7 open formula for rat and mouse. This diet meets the dietary allowances recommended for adult mice by the American Institute of Nutrition. The animals were fed ad libitum and kept in individual metabolic cages, in which body weight and food ingestion were monitored daily. The animal room was maintained at 22° C. on a 12 h light/12 h dark cycle. Ad libitum intake of drinking water was also allowed. Care of irradiated mice followed the recommendation of the Robert Wood Johnson Medical School (Piscataway, NJ) for mouse total body irradiation (policy 15), which includes: a) use of antibiotics in the drinking water (134 mg ampicillin/kg/day, 40 mg baytril/kg/day, and 220/42 mg sulfamethoxazole/trimethoprim/kg/day), b) making drinking water readily available, c) Napa nectar Systems Engineering Lab Group Inc., Napa, CA) provided on the bottom of the cage during the first 14 days and replaced daily, d) provision of softened food served in a small Petri dish on the cage floor, e) completely sterile environment (cage, food, and water) to avoid potential immunosuppression-associated infections. A free-standing wheel inside the cage was also included to facilitate the physical exercise of the animals. All experiments were started at 10.00 h to minimize possible circadian variations. Procedures involving animals were in compliance with international laws and policies (EEC Directive 86/609, OJ L 358. 1, Dec. 12, 1987; and NIH Guide for the Care and Use of Laboratory Animals, NIH Publ. No. 85-23, 1985). Mice were subjected to g-radiation (^137Cs) (total body irradiation, TBI) in a BIOBEAM 8000 (Gamma-Service Medical GmbH, Leipzig, Germany). Single fraction radiotherapy, at total doses ranging from approx. 5.0 to 10.0 Gy, was administered at a rate of approx. […]. The irradiation distance from the source was limited to 12 cm. Radiation dosimetry was controlled using alanine dosimeters from Bruker (Billerica, MA) with dosimetry variation of +/−0.09 Gy. […] NR (nicotinamide riboside, 3-aminocarbonyl-1-b-D-ribofuranosyl-pyridinium, Elysium Health, Inc., New York, NY) was dissolved in vaccination-grade water, and the pH of the solution neutralized (pH 7.0) before oral administration (185 mg/kg×day, Obrador 2020). FSL-1 (InvivoGen, San Diego, CA) was resuspended in sterile vaccination-grade water, and administered IP (0.25 mg/kg×day, the volume administered was of […] depending on the weight of the mouse, as recommended by Kurkjian 2017). Pharmaceutical grade amifostine (Ethyol) was obtained from Cumberland Pharmaceuticals (Nashville, TN) as 500 mg sterile lyophilized powder vial, and reconstituted with physiological saline prior to use.\nFirst, the effects of γ radiation and mice survival were studied. […] Mice received whole-body γ radiation (one single dose; ^137Cs, 0.5-0.6 Gy/min; Biobeam 8000, GSM GmbH). One Gy=absorption of 1 J of energy/kg of matter.\nNext, the thirty-days survival of mice treated with γ rays (LD50/30) and pterostilbene (PT) was analysed (FIG. 1B)."}, "[2]": {"tested_on": "Swiss albino mice subjected to whole-body γ irradiation", "test": "Survival of mice subjected to whole-body γ irradiation (LD50/30)", "format": "in vivo", "details": "dose of 100 mg/kg, orally once per day, 5 days before and 2 days after γ irradiation (7.2 Gy), FIG. 1B"}, "[3]": {"test": "Plasma and extravascular levels of pterostilbene after oral administration", "format": "in vivo", "details": "mice, 200 mg Pter/kg b.w. oral", "protocol": "Plasma and extravascular levels of pterostilbene after its oral administration to mice were studied. Mice were treated with 200 mg Pter/kg b.w. A group of 4-5 animals was sacrificed per each time point. Pter was dissolved in 2-hydroxypropyl-b-cyclodextrin, then suspended in 0.3% carboxymethylcellulose. Nondetectable=n.d. * P<0.1 comparing data obtained at 10-1440 min versus those found at 5 min."}, "[4]": {"details": "background statement; cited from earlier work"}, "[5]": {"test": "PT, SIL and NAD+ levels in circulating blood", "details": "treated and irradiated mice, FIG. 10A", "protocol": "Briefly, samples were analyzed through HPLC (Ultimate 3000, Thermo Fisher Scientific) and MS/MS (Waters TQ detector triple quadrupole) systems on a Hypurity™ C18 column (50×4.6 mm) using an injection volume of 5 μL. The mobile phases consisted of water (A) and acetonitrile (B). […] MS/MS data acquisition was performed under negative electrospray ionization mode. […] The fragmentary voltage was 150 V, and the collision energy 15 eV. Tissue sample preparation was as described for determination of PTER levels (above).\nWhole-blood samples (0.5 ml) were collected in sodium citrate tubes at 4° C. Then a whole-blood aliquot of 0.1 ml was transferred to a cryovial containing 0.9 ml of 0.5 M ice-cold perchloric acid to lyse all blood cells. Samples were centrifuged at 10,000 g×10 min (4° C.). Supernatants were stored at −80° C. until analyzed."}, "[6]": {"details": "Swiss albino, mouse, brain, 200 mg/kg b.w., read-out: Pter in Brain"}, "[7]": {"details": "Swiss albino, mouse, kidney, 200 mg/kg b.w., read-out: Pter in Kidney"}, "[8]": {"details": "Swiss albino, mouse, liver, 200 mg/kg b.w., read-out: Pter in Liver"}, "[9]": {"details": "Swiss albino, mouse, lung, 200 mg/kg b.w., read-out: Pter in Lung"}, "[10]": {"details": "Swiss albino, mouse, plasma, 200 mg/kg b.w., read-out: Pter in Plasma"}},
  "note": "Like-named read-outs stand apart in the source and are kept apart here.",
  "data": [
    {"smiles": "COc1cc(/C=C/c2ccc(O)cc2)cc(OC)c1", "note": "[PT, 3,5-dimethoxy-4′-hydroxystilbene]", "values": [
      {"measurement": "survival", "setting": "[1]", "value": "around 100%"},
      {"measurement": "effect on improving survival (60 days) among doses", "setting": "[2]", "value": "best effect on improving survival"},
      {"measurement": "concentration at 5 min", "setting": "[3]; [6]", "value": "2 ± 1", "unit": "µM"},
      {"measurement": "concentration at 10 min", "setting": "[3]; [6]", "value": "6 ± 2", "unit": "µM"},
      {"measurement": "concentration at 30 min", "setting": "[3]; [6]", "value": "10 ± 3", "unit": "µM"},
      {"measurement": "concentration at 60 min", "setting": "[3]; [6]", "value": "24 ± 7", "unit": "µM"},
      {"measurement": "concentration at 120 min", "setting": "[3]; [6]", "value": "14 ± 4", "unit": "µM"},
      {"measurement": "concentration at 240 min", "setting": "[3]; [6]", "value": "8 ± 3", "unit": "µM"},
      {"measurement": "concentration at 480 min", "setting": "[3]; [6]", "value": "3 ± 1", "unit": "µM"},
      {"measurement": "concentration at 5 min", "setting": "[3]; [7]", "value": "1 ± 0.5", "unit": "µM"},
      {"measurement": "concentration at 10 min", "setting": "[3]; [7]", "value": "4 ± 2", "unit": "µM"},
      {"measurement": "concentration at 30 min", "setting": "[3]; [7]", "value": "6 ± 3", "unit": "µM"},
      {"measurement": "concentration at 60 min", "setting": "[3]; [7]", "value": "10 ± 4", "unit": "µM"},
      {"measurement": "concentration at 120 min", "setting": "[3]; [7]", "value": "8 ± 2", "unit": "µM"},
      {"measurement": "concentration at 240 min", "setting": "[3]; [7]", "value": "2 ± 0.5", "unit": "µM"},
      {"measurement": "concentration at 5 min", "setting": "[3]; [8]", "value": "3 ± 1", "unit": "µM"},
      {"measurement": "concentration at 10 min", "setting": "[3]; [8]", "value": "8 ± 3", "unit": "µM"},
      {"measurement": "concentration at 30 min", "setting": "[3]; [8]", "value": "11 ± 3", "unit": "µM"},
      {"measurement": "concentration at 60 min", "setting": "[3]; [8]", "value": "17 ± 5", "unit": "µM"},
      {"measurement": "concentration at 120 min", "setting": "[3]; [8]", "value": "12 ± 4", "unit": "µM"},
      {"measurement": "concentration at 240 min", "setting": "[3]; [8]", "value": "7 ± 2", "unit": "µM"},
      {"measurement": "concentration at 480 min", "setting": "[3]; [8]", "value": "1 ± 0.5", "unit": "µM"},
      {"measurement": "concentration at 5 min", "setting": "[3]; [9]", "value": "7 ± 2", "unit": "µM"},
      {"measurement": "concentration at 10 min", "setting": "[3]; [9]", "value": "15 ± 6", "unit": "µM"},
      {"measurement": "concentration at 30 min", "setting": "[3]; [9]", "value": "23 ± 5", "unit": "µM"},
      {"measurement": "concentration at 60 min", "setting": "[3]; [9]", "value": "35 ± 8", "unit": "µM"},
      {"measurement": "concentration at 120 min", "setting": "[3]; [9]", "value": "21 ± 4", "unit": "µM"},
      {"measurement": "concentration at 240 min", "setting": "[3]; [9]", "value": "12 ± 3", "unit": "µM"},
      {"measurement": "concentration at 480 min", "setting": "[3]; [9]", "value": "2 ± 1", "unit": "µM"},
      {"measurement": "concentration at 5 min", "setting": "[3]; [10]", "value": "5 ± 2", "unit": "µM"},
      {"measurement": "concentration at 10 min", "setting": "[3]; [10]", "value": "18 ± 4", "unit": "µM"},
      {"measurement": "concentration at 30 min", "setting": "[3]; [10]", "value": "55 ± 9", "unit": "µM"},
      {"measurement": "concentration at 60 min", "setting": "[3]; [10]", "value": "98 ± 17", "unit": "µM"},
      {"measurement": "concentration at 120 min", "setting": "[3]; [10]", "value": "46 ± 12", "unit": "µM"},
      {"measurement": "concentration at 240 min", "setting": "[3]; [10]", "value": "21 ± 6", "unit": "µM"},
      {"measurement": "concentration at 480 min", "setting": "[3]; [10]", "value": "14 ± 5", "unit": "µM"},
      {"measurement": "concentration at 720 min", "setting": "[3]; Swiss albino, mouse, plasma, 200 mg/kg b.w., 720 min", "value": "1 ± 0.5", "unit": "µM"},
      {"measurement": "time after administration at which Pterostilbene levels peak", "setting": "[3]; all tissues studied", "value": 60, "unit": "min"},
      {"measurement": "potency as antifungal agent relative to Resveratrol", "setting": "[4]", "value": "60-100 times"},
      {"measurement": "PT levels in circulating blood, 30 min vs 120 min", "setting": "[5]", "value": "higher 30 min after"}
    ]}
  ]
}
